Assay results published in patent US20070253957A1, “Substituted N-Aryl-1H-Pyrazolo[3,4-B]Quinolin-4-Amines and Analogs as Activators of Caspases and Inducers of Apoptosis” (Cytovia, Inc., priority 2004, published 2007).

Tested on: T-47D
Experiment: Caspase cascade activation assay (N-(Ac-DEVD)-N'-ethoxycarbonyl-R110 fluorogenic substrate) in T-47D cells
Type: cell-based, Human
Conditions: 24 h incubation; for Caspase Activity Ratio: ratio of net RFU (T=3 h) to that of control samples, 0.16 to 10 μM final; for EC50: Homo sapiens, T47D, sigmoidal dose-response calculation, read-out: Caspase Potency EC50
Description: Human breast cancer cell lines T-47D was grown according to media component mixtures designated by American Type Culture Collection+10% FCS (mvitrogen Corporation), in a 5% CO2-95% humidity incubator at 37° C. T-47D and ZR-75-1 cells were maintained at a cell density between 30 and 80% confluency and for HL-60 at a cell density of 0.1 to 0.6×10^6 cells/mL. Cells were harvested at 600×g and resuspended at 0.65×10^6 cells/mL into appropriate media+10% FCS. An aliquot of 45 μL of cells was added to a well of a 96-well microtiter plate containing 5 μL of a 10% DMSO in RPMI-1640 media solution containing 1.6 to 100 μM of 1,3-dimethyl-N-(4-methoxyphenyl)-1H-pyrazolo[3,4-b]quinolin-4-amine or other test compound (0.16 to 10 μM final). An aliquot of 45 μL of cells was added to a well of a 96-well microtiter plate containing 5 μL of a 10% DMSO in RPMI-1640 media solution without test compound as the control sample. The samples were mixed by agitation and then incubated at 37° C. for 24 h in a 5% CO2-95% humidity incubator. After incubation, the samples were removed from the incubator and 50 μL of a solution containing 20 μM of N-(Ac-DEVD)-N′-ethoxycarbonyl-R110 fluorogenic substrate (SEQ ID NO:1) (Cytovia, Inc.; U.S. Pat. No. 6,335,429), 20% sucrose (Sigma), 20 mM DTT (Sigma), 200 mM NaCl (Sigma), 40 mM Na PIPES buffer pH 7.2 (Sigma), and 500 μg/mL lysolecithin (Calbiochem) was added. The samples were mixed by agitation and incubated at room temperature. Using a fluorescent plate reader (Model 1420 Wallac Instruments), an initial reading (T=0) was made about 1-2 min after addition of the substrate solution, employing excitation at 485 nm and emission at 530 nm, to determine the background fluorescence of the control sample. After about 3 h of incubation, the samples were read for fluorescence as above (T=3 h).
The Relative Fluorescence Unit values (RFU) were used to calculate the sample readings as follows: RFU(T=3h)−Control RFU(T=0)=Net RFU(T=3h)
The activity of caspase cascade activation was determined by the ratio of the net RFU value for 1,3-dimethyl-N-(4-methoxyphenyl)-1H-pyrazolo[3,4-b]quinolin-4-amine to that of control samples. The EC50 (nM) was determined by a sigmoidal dose-response calculation (Prism 2.0, GraphPad Software Inc.).

| SMILES | Caspase Activity Ratio | EC50 [µM] |
| --- | --- | --- |
| CC(=O)c1cccc(Nc2c3ccccc3nc3c2c(C)nn3C)c1 [Example 5, N-(3-Acetylphenyl)-1,3-dimethyl-1H-pyrazolo[3,4-b]quinolin-4-amine] | 1.0 | > 10 |
| CC(=O)c1ccc(Oc2c3ccccc3nc3c2c(C)nn3C)cc1 [Example 13, 4-(4-Acetylphenoxy)-1,3-dimethyl-1H-pyrazolo[3,4-b]quinoline] | 7.5 | 4.32 |
| CCc1ccccc1Nc1c2c(nc3ccccc13)CCC2 [N-(2-Ethylphenyl)-2,3-dihydro-1H-cyclopenta[b]quinolin-9-amine] | 6.5 | 2.96 |
| CCc1ccc(Nc2c3ccccc3nc3c2c(C)nn3C)cc1 [Example 22, N-(4-Ethylphenyl)-1,3-dimethyl-1H-pyrazolo[3,4-b]quinolin-4-amine] | 1.1 | > 10 |
| Cc1nn(C)c2nc3ccccc3c(Nc3ccc(N)cc3)c12.Cl [Example 45, N-(4-Aminophenyl)-1,3-dimethyl-1H-pyrazolo[3,4-b]quinolin-4-amine hydrochloride] | 1.1 | > 10 |
| COc1ccc(Nc2c3ccccc3nc3c2c(C)nn3C)cn1 [Example 7, 1,3-Dimethyl-N-(6-methoxypyridin-3-yl)-1H-pyrazolo[3,4-b]quinolin-4-amine] | 1.0 | > 10 |
| COC(=O)c1ccc(Nc2c3c(nc4ccccc24)CCC3)cc1 [N-(4-(Methoxycarbonyl)phenyl)-2,3-dihydro-1H-cyclopenta[b]quinolin-9-amine] | 4.8 | 0.34 |
| Cc1nn(C)c2nc3ccccc3c(Nc3ccc(C(=O)C(F)(F)F)cc3)c12 [Example 48, 1,3-Dimethyl-N-(4-(2,2,2-trifluoroacetyl)phenyl)-1H-pyrazolo[3,4-b]quinolin-4-amine] | 1.1 | > 10 |
| Cc1nn(C)c2nc3ccccc3c(Nc3ccc(S(C)(=O)=O)cc3)c12 [Example 34, 1,3-Dimethyl-N-(4-methylsulfonylphenyl)-1H-pyrazolo[3,4-b]quinolin-4-amine] | 1.1 | > 10 |
| Cc1ccc2nc3c(c(Nc4cccc(O)c4)c2c1)CCC3 [N-(3-Hydroxyphenyl)-7-methyl-2,3-dihydro-1H-cyclopenta[b]quinolin-9-amine] | 3.7 | 5.53 |
| COc1ccccc1Nc1c2c(nc3ccccc13)CCC2 [N-(2-Methoxyphenyl)-2,3-dihydro-1H-cyclopenta[b]quinolin-9-amine] | 7.5 | 2.45 |
| Cc1nn(C)c2nc3ccccc3c(Nc3ccc(C(=O)C(C)C)cc3)c12 [Example 44, N-(4-Isobutyrylphenyl)-1,3-dimethyl-1H-pyrazolo[3,4-b]quinolin-4-amine] | 4.3 | 0.248 |
| CC(=O)c1ccc(Nc2c3ccccc3nc3c2c(C(C)C)nn3C)cc1 [Example 21, N-(4-Acetylphenyl)-1-methyl-3-isopropyl-1H-pyrazolo[3,4-b]quinolin-4-amine] | 1.1 | > 10 |
| CC(=O)Nc1ccc(Nc2c3ccccc3nc3c2c(C)nn3C)cc1 [Example 32, N-(4-Acetamidophenyl)-1,3-dimethyl-1H-pyrazolo[3,4-b]quinolin-4-amine] | 1.1 | > 10 |
| COC(=O)c1cccc(Nc2c3c(nc4ccccc24)CCC3)c1 [N-(3-(Methoxycarbonyl)phenyl)-2,3-dihydro-1H-cyclopenta[b]quinolin-9-amine] | 5.6 | 3.04 |
| Cc1nn(C)c2nc3ccccc3c(Nc3ccc(N=[N+]=[N-])cc3)c12 [Example 46, N-(4-Azidophenyl)-1,3-dimethyl-1H-pyrazolo[3,4-b]quinolin-4-amine] | 1.1 | > 10 |
| CCOC(=O)c1ccc(Nc2c3c(nc4ccccc24)CCC3)cc1 [N-(4-(Ethoxycarbonyl)phenyl)-2,3-dihydro-1H-cyclopenta[b]quinolin-9-amine] | 9.5 | 1.18 |
| COc1cccc(Nc2c3ccccc3nc3c2c(C)nn3C)c1 [Example 8, 1,3-Dimethyl-N-(3-methoxyphenyl)-1H-pyrazolo[3,4-b]quinolin-4-amine] | 3.9 | 5.83 |
| Cc1nn(C)c2nc3ccccc3c(Nc3ccc([S+](C)[O-])cc3)c12 (stereo not drawn) [Example 39, 1,3-Dimethyl-N-(4-methylsulfinylphenyl)-1H-pyrazolo[3,4-b]quinolin-4-amine] | 1.1 | > 10 |
| Cc1nn(C)c2nc3ccccc3c(Nc3ccc(C(N)=O)cc3)c12 [Example 6, N-(4-Carbamoylphenyl)-1,3-dimethyl-1H-pyrazolo[3,4-b]quinolin-4-amine] | 1.0 | > 10 |
| CC(=O)c1ccc(Nc2c3ccccc3nc3c2c(C)nn3C)cc1 [N-(4-Acetylphenyl)-1,3-dimethyl-1H-pyrazolo[3,4-b]quinolin-4-amine] | 4.2 | 0.314 |
| CC(=O)c1cccc(Nc2c3c(nc4ccccc24)CCC3)c1 [N-(3-Acetylphenyl)-2,3-dihydro-1H-cyclopenta[b]quinolin-9-amine] | 8.8 | 0.304 |
| Cc1nn(C)c2nc3ccccc3c(Nc3ccc(C(=O)O)cc3)c12 [Example 47, N-(4-Carboxylphenyl)-1,3-dimethyl-1H-pyrazolo[3,4-b]quinolin-4-amine] | 1.1 | > 10 |
| CC(C)C(=O)c1cccc(N(C)c2c3c(nc4ccccc24)CCC3)c1 [Example 16, N-(3-Isobutyrylphenyl)-N-methyl-2,3-dihydro-1H-cyclopenta[b]quinolin-9-amine] | 1.1 | > 10 |
| CCOC(=O)c1ccc(N(C)c2c3c(nc4ccccc24)CCC3)cc1 [Example 17, N-(4-(Ethoxycarbonyl)phenyl)-N-methyl-2,3-dihydro-1H-cyclopenta[b]quinolin-9-amine] | 9.3 | 5.12 |
| COc1ccc(Sc2c3ccccc3nc3c2c(C)nn3C)cc1 [Example 12, 4-(4-Methoxyphenylthio)-1,3-dimethyl-1H-pyrazolo[3,4-b]quinoline] | 9.3 | 4.23 |
| CC(=O)c1ccc(Nc2c3ccccc3nc3c2cnn3C)cc1 [Example 18, N-(4-Acetylphenyl)-1-methyl-1H-pyrazolo[3,4-b]quinolin-4-amine] | 8.5 | 0.841 |
